From article PMC5343665, “Cytochrome P450s in human immune cells regulate IL-22 and c-Kit via an AHR feedback loop” (Scientific Reports, 2017) come the findings set out here.

What all share (assay type): cell-based
In one test the target is T1, CYP1A2 (Homo sapiens, UniProt P05177).
T1 sequence (P05177 2-516): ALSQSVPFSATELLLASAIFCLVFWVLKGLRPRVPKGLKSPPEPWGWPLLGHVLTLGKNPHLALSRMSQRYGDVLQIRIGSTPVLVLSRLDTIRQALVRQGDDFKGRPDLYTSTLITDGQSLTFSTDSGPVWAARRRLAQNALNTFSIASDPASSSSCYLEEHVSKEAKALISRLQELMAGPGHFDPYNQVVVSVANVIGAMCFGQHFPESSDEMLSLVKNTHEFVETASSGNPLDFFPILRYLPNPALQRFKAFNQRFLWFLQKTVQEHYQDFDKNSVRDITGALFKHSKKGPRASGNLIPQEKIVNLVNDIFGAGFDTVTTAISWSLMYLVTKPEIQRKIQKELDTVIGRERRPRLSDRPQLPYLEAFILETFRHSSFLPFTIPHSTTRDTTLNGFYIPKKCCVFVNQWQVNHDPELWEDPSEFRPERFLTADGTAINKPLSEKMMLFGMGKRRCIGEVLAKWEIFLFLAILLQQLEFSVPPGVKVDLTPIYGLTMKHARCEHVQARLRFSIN
In words: EROD (ethoxyresorufin deethylase) assay in V79 cells expressing human CYP1A2.

A further test has as its target T2, CYP1B1 (Homo sapiens, UniProt Q16678).
T2 sequence (Q16678 1-543): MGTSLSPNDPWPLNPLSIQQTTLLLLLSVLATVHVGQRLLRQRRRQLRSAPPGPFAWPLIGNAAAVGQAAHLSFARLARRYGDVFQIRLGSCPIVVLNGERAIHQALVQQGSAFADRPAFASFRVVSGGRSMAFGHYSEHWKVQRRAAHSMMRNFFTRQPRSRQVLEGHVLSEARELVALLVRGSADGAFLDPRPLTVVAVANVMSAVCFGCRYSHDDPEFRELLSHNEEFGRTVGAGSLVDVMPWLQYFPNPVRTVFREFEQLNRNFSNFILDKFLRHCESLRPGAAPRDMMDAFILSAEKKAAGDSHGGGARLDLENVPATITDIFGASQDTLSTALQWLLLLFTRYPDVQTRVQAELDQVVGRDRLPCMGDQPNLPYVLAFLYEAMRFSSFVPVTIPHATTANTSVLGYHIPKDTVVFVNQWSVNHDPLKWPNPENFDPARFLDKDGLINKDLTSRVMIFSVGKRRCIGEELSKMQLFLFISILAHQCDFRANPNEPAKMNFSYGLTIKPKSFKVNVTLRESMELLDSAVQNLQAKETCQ
Put plainly: EROD (ethoxyresorufin deethylase) assay in V79 cells expressing human CYP1B1.

The target of a further test is T3, CYP1A1 (Homo sapiens, UniProt P04798).
T3 sequence (P04798 1-512): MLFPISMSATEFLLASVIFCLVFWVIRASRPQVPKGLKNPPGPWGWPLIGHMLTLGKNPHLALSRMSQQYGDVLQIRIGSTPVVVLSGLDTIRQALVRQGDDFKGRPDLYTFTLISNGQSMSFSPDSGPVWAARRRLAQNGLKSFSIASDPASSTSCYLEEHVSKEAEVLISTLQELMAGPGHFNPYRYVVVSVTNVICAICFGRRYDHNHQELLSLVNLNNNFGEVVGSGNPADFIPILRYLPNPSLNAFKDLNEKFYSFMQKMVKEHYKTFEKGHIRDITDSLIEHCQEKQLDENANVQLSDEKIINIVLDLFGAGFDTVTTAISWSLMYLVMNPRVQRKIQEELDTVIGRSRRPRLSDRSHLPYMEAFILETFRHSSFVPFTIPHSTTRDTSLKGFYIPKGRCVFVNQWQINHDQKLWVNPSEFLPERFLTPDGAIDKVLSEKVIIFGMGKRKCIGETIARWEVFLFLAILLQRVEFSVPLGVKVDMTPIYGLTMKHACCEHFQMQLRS
In words: EROD (ethoxyresorufin deethylase) assay in V79 cells expressing human CYP1A1.

As a reminder, the IC50 is the concentration needed to halve the response being measured. A low value points to higher potency.

For `CC#Cc1ccc2ccc3cccc4ccc1c2c34` [1-PP, 1-(1-propynyl)-pyrene], the IC50 on CYP1A2 came out at 650 nM; against CYP1B1 it was 218 nM; at CYP1A1 it was 5 nM.
